Tests used:
[1] = biological target: Squalene monooxygenase (Sus scrofa); assay: The compound was tested for its inhibitory activity against pig Squalene epoxidase at pH 8.8
[2] = biological target: Squalene monooxygenase (Sus scrofa); assay: The compound was tested for its inhibitory activity against pig Squalene epoxidase at pH 7.4

IC50 [1]: 32 µM | IC50 [2]: 109 µM
SMILES: CC(C)=CCC/C(=C/CC/C(C)=C/CC/C=C(\C)CC/C=C(\C)CCC=C(C)C)CN [6,11,15,19-tetramethyl-2-(4-methyl-3-pentenyl)-(2Z,6E,10E,14E)-2,6,10,14,18-icosapentaen-1-amine]
